The values that follow come from patent publication US20120264735A1 (priority 2009, published 2012).

Each structure is given as a SMILES string.

T1 sequence (P08581 25-1390): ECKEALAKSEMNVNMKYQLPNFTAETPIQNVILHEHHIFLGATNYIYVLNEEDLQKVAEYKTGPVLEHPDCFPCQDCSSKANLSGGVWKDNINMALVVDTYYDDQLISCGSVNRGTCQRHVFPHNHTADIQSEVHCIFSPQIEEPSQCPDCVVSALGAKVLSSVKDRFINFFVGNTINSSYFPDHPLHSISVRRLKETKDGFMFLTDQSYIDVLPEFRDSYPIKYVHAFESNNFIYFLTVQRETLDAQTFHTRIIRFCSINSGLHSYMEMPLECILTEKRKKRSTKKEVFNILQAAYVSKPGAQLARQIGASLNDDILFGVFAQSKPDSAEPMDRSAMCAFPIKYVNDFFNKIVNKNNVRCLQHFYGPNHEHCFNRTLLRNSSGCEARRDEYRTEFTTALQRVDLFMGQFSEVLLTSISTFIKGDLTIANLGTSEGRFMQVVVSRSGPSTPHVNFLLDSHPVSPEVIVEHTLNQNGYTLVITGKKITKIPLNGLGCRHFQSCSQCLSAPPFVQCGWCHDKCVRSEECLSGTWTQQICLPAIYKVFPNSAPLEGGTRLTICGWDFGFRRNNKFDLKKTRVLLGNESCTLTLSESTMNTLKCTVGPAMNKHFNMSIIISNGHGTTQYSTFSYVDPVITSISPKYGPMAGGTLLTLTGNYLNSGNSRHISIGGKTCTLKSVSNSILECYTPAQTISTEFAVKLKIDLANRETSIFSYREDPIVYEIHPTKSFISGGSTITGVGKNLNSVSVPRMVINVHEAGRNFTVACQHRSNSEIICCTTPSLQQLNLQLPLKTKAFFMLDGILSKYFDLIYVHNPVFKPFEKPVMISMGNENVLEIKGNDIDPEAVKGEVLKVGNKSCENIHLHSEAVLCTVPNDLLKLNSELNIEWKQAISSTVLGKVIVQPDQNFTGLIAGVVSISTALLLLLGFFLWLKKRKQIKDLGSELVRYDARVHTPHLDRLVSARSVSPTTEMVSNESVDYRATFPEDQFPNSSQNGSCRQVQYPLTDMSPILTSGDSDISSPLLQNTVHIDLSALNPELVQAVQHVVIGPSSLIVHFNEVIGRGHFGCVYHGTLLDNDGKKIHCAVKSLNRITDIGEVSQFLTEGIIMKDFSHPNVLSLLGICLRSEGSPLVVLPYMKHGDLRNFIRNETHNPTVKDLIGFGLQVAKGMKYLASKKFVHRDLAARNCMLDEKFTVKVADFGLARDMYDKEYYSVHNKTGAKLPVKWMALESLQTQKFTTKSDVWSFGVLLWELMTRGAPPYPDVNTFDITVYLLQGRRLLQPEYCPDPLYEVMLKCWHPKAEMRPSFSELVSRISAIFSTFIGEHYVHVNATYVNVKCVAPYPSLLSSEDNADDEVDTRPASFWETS

The assay has as its target T1, c-Met kinase (recombinant c-Met) (Homo sapiens, UniProt P08581).
T1 construct: 0.27 nM recombinant c-Met
The experiment in a line: In vitro kinase assay I (homogeneous time-resolved fluorescence tyrosine kinase assay). The class given is biochemical. The procedure, abridged: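 Biotinylated peptide (0.5 μM) phosphorylated by 0.2 nM recombinant c-Met with 50 μM MgATP, 60 min at room temperature, pH 7.4, 5% DMSO. EDTA stop; HTRF read with Eu-anti-phosphotyrosine antibody and streptavidin-APC. IC50 from 4-parameter logistic fit.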
Consider `CN(CCOC(=O)Nc1cccc(Cc2nn(-c3cc(F)c(F)c(F)c3)ccc2=O)c1)c1ccccc1` [Example 550, 2-[methyl(phenyl)amino]ethyl (3-{[4-oxo-1-(3,4,5-trifluorophenyl)-1,4-dihydropyridazin-3-yl]methyl}phenyl)carbamate], for which the IC50 is less than 100 nM. For the compound `CCCOC(=O)Nc1cccc(Cc2nn(-c3cccnc3)ccc2=O)c1` [Example 28, propyl {3-[(4-oxo-1-pyridin-3-yl-1,4-dihydropyridazin-3-yl)methyl]phenyl}carbamate], the 50% inhibitory concentration (IC50) was less than 100 nM. Next, `Cn1cnc(-c2cccc(Cc3nn(-c4cnn(C)c4)ccc3=O)c2)c1` [Example 673, 3-[3-(1-methyl-1H-imidazol-4-yl)benzyl]-1-(1-methyl-1H-pyrazol-4-yl)pyridazin-4(1H)-one]: 100 to 1000 nM; `O=c1ccn(-c2ccccc2)nc1Cc1cccc(-c2ccccn2)c1` [Example 671, 1-phenyl-3-(3-pyridin-2-ylbenzyl) pyridazin-4(1H)-one]: 1000 to 3000 nM; `Cn1cc(-n2ccc(=O)c(Cc3cccc(NC(=O)OCC(F)(F)CN4CCOCC4)c3)n2)cn1` [Example 525, 2,2-difluoro-3-morpholin-4-ylpropyl (3-{[1-(1-methyl-1H-pyrazol-4-yl)-4-oxo-1,4-dihydropyridazin-3-yl]methyl}phenyl)carbamate]: less than 100 nM. Next, `CCOc1cnc(-c2cccc(Cc3nn(-c4cncc(C#N)c4)ccc3=O)c2)nc1` [Example 136, 5-{3-[3-(5-ethoxypyrimidin-2-yl)benzyl]-4-oxopyridazin-1(4H)-yl}pyridine-3-carbonitrile]: less than 100 nM. For the compound `Cc1cnc(-c2cccc(Cc3nn(-c4cnn(C)c4)ccc3=O)c2)[nH]1` [Example 672, 3-[3-(5-Methyl-1H-imidazol-2-yl)benzyl]-1-(1-methyl-1H-pyrazol-4-yl)pyridazin-4(1H)-one], the IC50 lay in the range of 1000 to 3000 nM.

Turning to `Cn1cc(-n2ccc(=O)c(Cc3cccc(NC(=O)OC4CCNCC4)c3)n2)cn1` [Example 618, piperidin-4-yl (3-{[1-(1-methyl-1H-pyrazol-4-yl)-4-oxo-1,4-dihydropyridazin-3-yl]methyl}phenyl)carbamate], the IC50 is 100 to 1000 nM. Regarding `Cn1cc(-n2ccc(=O)c(Cc3cccc(-c4noc(CC5COC5)n4)c3)n2)cn1` [Example 745, 1-(1-methyl-1H-pyrazol-4-yl)-3-{3-[5-(oxetan-3-ylmethyl)-1,2,4-oxadiazol-3-yl]benzyl}pyridazin-4(1H)-one], the IC50 lay in the range of 100 to 1000 nM. As to `CCn1cc(-n2ccc(=O)c(C(C)c3cccc(-c4ncc(OCCOC)cn4)c3)n2)cn1` (single isomer, unassigned) [Example 247, 1-(1-ethyl-1H-pyrazol-4-yl)-3-((1S or R)-1-{3-[5-(2-methoxyethoxy)primidin-2-yl]phenyl}ethyl)pyridazin-4(1H)-one], the IC50 lay within 100 to 1000 nM. The figure for `CCc1cnc(-c2cccc(C(C)c3nn(-c4ccc(F)c(F)c4)ccc3=O)c2)nc1` (single isomer, unassigned) [Example 230, 1-(3,4-difluorophenyl)-3-{(1S or R)-1-[3-(5-ethylpyrimidin-2-yl)phenyl]ethyl}pyridazin-4(1H)-one] is 100 to 1000 nM. The figure for `Cn1cc(-n2ccc(=O)c(Cc3cccc(-c4ncc(CCCO)cn4)c3)n2)cn1` [Example 395, 3-{3-[5-(3-hydroxypropyl)pyrimidin-2-yl]benzyl}-1-(1-methyl-1H-pyrazol-4-yl)pyridazin-4(1H)-one] is less than 100 nM.

Turning to `CCOC(=O)Nc1cccc(Cc2nn(-c3ccc(Br)cc3)ccc2=O)c1` [Example 18, ethyl (3-{[1-(4-bromophenyl)-4-oxo-1,4-dihydropyridazin-3-yl]methyl}phenyl)carbamate], the IC50 was less than 100 nM. For the compound `Cn1cc(-n2ccc(=O)c(Cc3cccc(NC(=O)NCc4ccccc4)c3)n2)cn1` [Example 490, 1-benzyl-3-(3-{[1-(1-methyl-1H-pyrazol-4-yl)-4-oxo-1,4-dihydropyridazin-3-yl]methyl}phenyl)urea], the half-inhibitory concentration (IC50) is less than 100 nM. For `COCCOCCOC(=O)Nc1cccc(Cc2nn(-c3cc(F)cc(F)c3)ccc2=O)c1` [Example 608, 2-(2-methoxyethoxy)ethyl (3-{[1-(3,5-difluorophenyl)-4-oxo-1,4-dihydropyridazin-3-yl]methyl}phenyl)carbamate], the IC50 was less than 100 nM. The figure for `Cn1cc(-n2ccc(=O)c(Cc3cccc(NC(=O)OCCN4CCCC4=O)c3)n2)cn1` [Example 533, 2-(2-oxopyrrolidin-1-yl)ethyl (3-{[1-(1-methyl-1H-pyrazol-4-yl)-4-oxo-1,4-dihydropyridazin-3-yl]methyl}phenyl)carbamate] is less than 100 nM. `CC(c1cccc(-c2ncc(OC(F)F)cn2)c1)c1nn(-c2cnn(C)c2)ccc1=O` (single isomer, unassigned) [Example 209, 3-[(1S or R)-1-{3-[5-(difluoromethoxy)pyrimidin-2-yl]phenyl}ethyl]-1-(1-methyl-1H-pyrazol-4-yl)pyridazin-4(1H)-one]: the 50% inhibitory concentration (IC50) lay within 100 to 1000 nM. `Cn1cc(-n2ccc(=O)c(Cc3cccc(-c4ncc(N5CCCCC5)cn4)c3)n2)cn1` [Example 441, 1-(1-methyl-1H-pyrazol-4-yl)-3-[3-(5-piperidin-1-ylpyrimidin-2-yl)benzyl]pyridazin-4(1H)-one]: the half-inhibitory concentration (IC50) was less than 100 nM. Next, `Cn1cc(-n2ccc(=O)c(Cc3cccc(-c4ncc(OCC5(O)CCOCC5)cn4)c3)n2)cn1` [Example 365, 3-(3-{5-[(4-hydroxytetrahydro-2H-pyran-4-yl)methoxy]pyrimidin-2-yl}benzyl)-1-(1-methyl-1H-pyrazol-4-yl)pyridazin-4(1H)-one]: less than 100 nM. Consider `COc1cnc(-c2cccc(Cc3nn(-c4cncc(F)c4)ccc3=O)c2)nc1` [Example 36, 1-(5-fluoropyridin-3-yl)-3-[3-(5-methoxypyrimidin-2-yl)benzyl]pyridazin-4(1H)-one], for which the 50% inhibitory concentration (IC50) is less than 100 nM.

`CCCOC(=O)Nc1cccc(Cc2nn(-c3ccc(OC)nc3)ccc2=O)c1` [Example 32, propyl (3-{[1-(6-methoxypyridin-3-yl)-4-oxo-1,4-dihydropyridazin-3-yl]methyl}phenyl)carbamate]: the IC50 is less than 100 nM. Next, `COCCOc1cnc(-c2cccc(Cc3nn(-c4cnn(C)c4)cc(C)c3=O)c2)nc1` [Example 750, 3-{3-[5-(2-Methoxyethoxy)pyrimidin-2-yl]benzyl}-5-methyl-1-(1-methyl-1H-pyrazol-4-yl)pyridazin-4(1H)-one]: less than 100 nM; `Cn1cc(-n2ccc(=O)c(Cc3ccc4ncccc4c3)n2)cn1` [Example 55, 1-(1-methyl-1H-pyrazol-4-yl)-3-(quinolin-6-ylmethyl)pyridazin-4(1H)-one]: 100 to 1000 nM. The figure for `CCCn1cnc(-c2cccc(C(C)c3nn(-c4cnn(CC)c4)ccc3=O)c2)n1` (single isomer, unassigned) [Example 689] is less than 100 nM. Consider `CCOc1cnc(-c2cccc(C(C)c3nn(-c4cnn(CC)c4)ccc3=O)c2)nc1` (single isomer, unassigned) [Example 245, 3-{(1S or R)-1-[3-(5-ethoxypyrimidin-2-yl)phenyl]ethyl}-1-(1-ethyl-1H-pyrazol-4-yl)pyridazin-4(1H)-one], for which the IC50 was 100 to 1000 nM. Turning to `CCOc1cnc(-c2cccc(C(F)c3nn(-c4cnn(C)c4)ccc3=O)c2)nc1` (single isomer, unassigned) [Example 655, 3-[(S or R)-[3-(5-ethoxypyrimidin-2-yl)phenyl](fluoro)methyl]-1-(1-methyl-1H-pyrazol-4-yl)pyridazin-4(1H)-one], the 50% inhibitory concentration (IC50) fell in the range of 100 to 1000 nM. As to `Cn1cc(-n2ccc(=O)c(Cc3cccc(-c4ncc(NC(=O)OC(C)(C)C)cn4)c3)n2)cn1` [Example 159, tert-butyl [2-(3-{[1-(1-methyl-1H-pyrazol-4-yl)-4-oxo-1,4-dihydropyridazin-3-yl]methyl}phenyl)pyrimidin-5-yl]carbamate], the concentration for half-maximal inhibition (IC50) is less than 100 nM.

Regarding `CCOC(=O)Nc1cccc(Cc2nn(-c3cnn(CC(C)C)c3)ccc2=O)c1` [Example 92, ethyl [3-({1-[1-(2-methylpropyl)-1H-pyrazol-4-yl]-4-oxo-1,4-dihydropyridazin-3-yl}methyl)phenyl]carbamate], the IC50 fell in the range of 100 to 1000 nM. The figure for `Cn1cc(-n2ccc(=O)c(Cc3cccc(-c4ncc(OCC5COCCO5)cn4)c3)n2)cn1` (single isomer, unassigned) [Example 347, 3-(3-{5-[(2R or-S)-1,4-dioxan-2-ylmethoxy]pyrimidin-2-yl}benzyl)-1-(1-methyl-1H-pyrazol-4-yl)pyridazin-4(1H)-one] is less than 100 nM; for `CCOC(=O)Nc1cccc(Cc2nn(-c3cnn(CCN)c3)ccc2=O)c1` [Example 647, Ethyl [3-({1-[1-(2-aminoethyl)-1H-pyrazol-4-yl]-4-oxo-1,4-dihydropyridazin-3-yl}methyl)phenyl]carbamate] it is 100 to 1000 nM; for `CCC(C)c1cnc(-c2cccc(Cc3nn(-c4cnn(C)c4)ccc3=O)c2)nc1` (racemic) [Example 408, rac-3-{3-[5-(Butan-2-yl)pyrimidin-2-yl]benzyl}-1-(1-methyl-1H-pyrazol-4-yl)pyridazin-4(1-1)-one] it is less than 100 nM. Consider `O=C(Nc1cccc(Cc2nn(-c3cc(F)cc(F)c3)ccc2=O)c1)OCCN1CCOCC1` [Example 523, 2-morpholin-4-ylethyl (3-{[1-(3,5-difluorophenyl)-4-oxo-1,4-dihydropyridazin-3-yl]methyl}phenyl)carbamate], for which the 50% inhibitory concentration (IC50) is less than 100 nM. Next, `O=C1CN(CCOC(=O)Nc2cccc(Cc3nn(-c4cc(F)cc(F)c4)ccc3=O)c2)CCN1` [Example 604, 2-(3-oxopiperazin-1-yl)ethyl (3-{[1-(3,5-difluorophenyl)-4-oxo-1,4-dihydropyridazin-3-yl]methyl}phenyl)carbamate]: less than 100 nM; `CCn1cc(-n2ccc(=O)c(Cc3cccc(-c4ncn(CC)n4)c3)n2)cn1` [Example 86, 1-(1-ethyl-1H-pyrazol-4-yl)-3-[3-(1-ethyl-1H-1,2,4-triazol-3-yl)benzyl]pyridazin-4(1H)-one]: less than 100 nM.

What is called IC50 is the concentration that inhibits the measured activity by half.
